Laboratory results published in ChEMBL document CHEMBL1201862, “PubChem BioAssay data set” (2004).
Active and inactive are the calls of the source.

Columns and labels:
Protein RecA = molecular target: T1, Protein RecA (Mycobacterium tuberculosis, UniProt P9WHJ3); test: Fluorescence Cell-Free Homogeneous Dose Retest to Identify Inhibitors of RecA-Intein Splicing Activity. [Related pubchem assays (depositor defined):AID2097, AID2223, AID489010, AID492950]; format: functional
T1 sequence (P9WHJ3 whole entry): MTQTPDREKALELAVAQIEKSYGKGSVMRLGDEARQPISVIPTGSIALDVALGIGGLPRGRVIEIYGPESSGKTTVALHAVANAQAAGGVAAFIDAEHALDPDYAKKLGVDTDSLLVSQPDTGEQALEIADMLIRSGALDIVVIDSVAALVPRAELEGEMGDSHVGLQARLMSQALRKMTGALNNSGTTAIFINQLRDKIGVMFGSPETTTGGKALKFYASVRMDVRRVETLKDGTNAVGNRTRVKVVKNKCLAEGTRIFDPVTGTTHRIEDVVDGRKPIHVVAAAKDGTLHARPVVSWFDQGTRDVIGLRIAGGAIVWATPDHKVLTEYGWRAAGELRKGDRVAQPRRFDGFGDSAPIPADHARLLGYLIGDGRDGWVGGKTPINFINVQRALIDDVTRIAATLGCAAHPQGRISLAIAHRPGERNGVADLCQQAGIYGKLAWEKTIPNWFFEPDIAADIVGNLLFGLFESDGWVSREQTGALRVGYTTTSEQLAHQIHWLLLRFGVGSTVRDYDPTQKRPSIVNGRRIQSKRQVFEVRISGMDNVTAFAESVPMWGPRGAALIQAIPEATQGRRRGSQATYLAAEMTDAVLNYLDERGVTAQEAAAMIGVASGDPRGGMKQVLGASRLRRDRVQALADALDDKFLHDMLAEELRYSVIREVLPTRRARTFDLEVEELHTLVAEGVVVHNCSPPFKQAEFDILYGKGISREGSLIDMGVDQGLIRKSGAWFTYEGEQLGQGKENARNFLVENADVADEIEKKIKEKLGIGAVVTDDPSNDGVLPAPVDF

[1] = molecular target: T2, Replicative DNA helicase DnaB (Mycobacterium tuberculosis, UniProt P9WMR3); test: DnaB intein splicing inhibitors, dose response, biochemical, cell-free fluorescence (AID 449749); format: functional
T2 sequence (P9WMR3 whole entry): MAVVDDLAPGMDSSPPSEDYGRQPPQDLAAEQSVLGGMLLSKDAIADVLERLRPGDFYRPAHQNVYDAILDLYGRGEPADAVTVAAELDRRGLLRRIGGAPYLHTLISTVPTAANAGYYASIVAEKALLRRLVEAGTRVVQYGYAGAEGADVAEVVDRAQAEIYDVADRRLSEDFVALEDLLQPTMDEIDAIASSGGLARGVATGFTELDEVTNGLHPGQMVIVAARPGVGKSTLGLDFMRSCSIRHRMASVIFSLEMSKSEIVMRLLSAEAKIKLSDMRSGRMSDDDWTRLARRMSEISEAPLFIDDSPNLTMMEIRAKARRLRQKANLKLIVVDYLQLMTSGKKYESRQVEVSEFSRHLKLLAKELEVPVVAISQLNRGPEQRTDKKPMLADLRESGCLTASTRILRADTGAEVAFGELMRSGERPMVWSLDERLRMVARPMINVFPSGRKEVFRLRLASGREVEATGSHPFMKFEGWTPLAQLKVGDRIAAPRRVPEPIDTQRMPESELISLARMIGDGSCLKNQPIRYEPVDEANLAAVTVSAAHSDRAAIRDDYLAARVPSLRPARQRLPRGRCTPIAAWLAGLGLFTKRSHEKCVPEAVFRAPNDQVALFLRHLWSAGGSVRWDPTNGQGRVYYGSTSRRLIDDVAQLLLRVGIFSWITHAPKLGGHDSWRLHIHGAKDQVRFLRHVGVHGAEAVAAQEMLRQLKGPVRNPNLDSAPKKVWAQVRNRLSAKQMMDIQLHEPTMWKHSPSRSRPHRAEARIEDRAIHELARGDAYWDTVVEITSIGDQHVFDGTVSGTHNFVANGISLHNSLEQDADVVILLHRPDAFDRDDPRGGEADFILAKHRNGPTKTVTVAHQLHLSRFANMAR

[2] = viability of uninfected HEp-2 cells – cell-based, HTS, cytotoxicity control for RSV inhibitor project, dose response (AID 2410); format: functional; details: human respiratory syncytial virus
[3] = reduction of Shn3 3'UTR-driven luciferase in osteoblasts – cell-based, Clone20 osteoblasts, firefly luciferase, cherry-picked, dose response (AID 624132); format: functional;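 further: firefly luciferase luminescence from reporter carrying the Shn3 3'UTR in osteoblasts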
[4] = non-specific 3'UTR reporter inhibition in Clone20-Shn3RL – cell-based, Renilla luciferase, cherry-picked, counter-screen for Shn3 inhibitor project, dose response (AID 624133); format: functional
Streptococcus = test: GAS UMAA2166 growth inhibition – luminescence, BacTiterGlo, counter-screen for streptokinase expression inhibitor project, dose response (AID 1915); format: functional, organism-based;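 further: potency for reduction of bacterial viability or growth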
Streptokinase A = molecular target: T3, Streptokinase A (Streptococcus pyogenes serotype M1, UniProt P10520); test: viability-normalized secreted streptokinase activity reduction – plasminogen activation absorbance, OD405, dose response (AID 1914); format: functional, Streptococcus pyogenes M1 GAS;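 further: secreted streptokinase activity via plasminogen activation per viability signal from cell pellet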
T3 sequence (P10520 whole entry): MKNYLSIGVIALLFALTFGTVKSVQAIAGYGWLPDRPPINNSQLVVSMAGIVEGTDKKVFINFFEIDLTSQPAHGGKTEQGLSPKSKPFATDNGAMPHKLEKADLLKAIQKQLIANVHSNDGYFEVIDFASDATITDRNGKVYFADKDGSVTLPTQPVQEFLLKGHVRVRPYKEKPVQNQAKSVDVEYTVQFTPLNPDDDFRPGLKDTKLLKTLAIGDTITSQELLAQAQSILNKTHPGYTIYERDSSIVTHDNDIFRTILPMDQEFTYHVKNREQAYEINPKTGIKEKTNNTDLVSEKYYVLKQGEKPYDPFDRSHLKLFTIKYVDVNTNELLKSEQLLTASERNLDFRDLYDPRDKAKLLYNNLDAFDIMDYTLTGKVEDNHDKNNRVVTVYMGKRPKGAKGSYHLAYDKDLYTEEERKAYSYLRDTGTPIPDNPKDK

[5] = system: Streptococcus sp. 'group A'; test: Streptococcus pyogenes SK(-)GAS viability under kanamycin – luminescence, BacTiterGlo, confirmation, counter-screen for streptokinase expression inhibitor project, dose response (AID 1900); format: functional, organism-based
INS1 = test: INS-1E survival protection against cytokine death – cell-based, luminescence, retest, dose response (AID 449756); format: functional; details: Rattus norvegicus;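 further: cell death triggered by IL-1 beta plus TNF-alpha plus IFN-gamma mixture; protective hits raise ATP signal compared with cytokine alone wells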
Protein skinhead-1 = molecular target: T4, Protein skinhead-1 (Caenorhabditis elegans, UniProt P34707); format: functional
T4 sequence (P34707 whole entry): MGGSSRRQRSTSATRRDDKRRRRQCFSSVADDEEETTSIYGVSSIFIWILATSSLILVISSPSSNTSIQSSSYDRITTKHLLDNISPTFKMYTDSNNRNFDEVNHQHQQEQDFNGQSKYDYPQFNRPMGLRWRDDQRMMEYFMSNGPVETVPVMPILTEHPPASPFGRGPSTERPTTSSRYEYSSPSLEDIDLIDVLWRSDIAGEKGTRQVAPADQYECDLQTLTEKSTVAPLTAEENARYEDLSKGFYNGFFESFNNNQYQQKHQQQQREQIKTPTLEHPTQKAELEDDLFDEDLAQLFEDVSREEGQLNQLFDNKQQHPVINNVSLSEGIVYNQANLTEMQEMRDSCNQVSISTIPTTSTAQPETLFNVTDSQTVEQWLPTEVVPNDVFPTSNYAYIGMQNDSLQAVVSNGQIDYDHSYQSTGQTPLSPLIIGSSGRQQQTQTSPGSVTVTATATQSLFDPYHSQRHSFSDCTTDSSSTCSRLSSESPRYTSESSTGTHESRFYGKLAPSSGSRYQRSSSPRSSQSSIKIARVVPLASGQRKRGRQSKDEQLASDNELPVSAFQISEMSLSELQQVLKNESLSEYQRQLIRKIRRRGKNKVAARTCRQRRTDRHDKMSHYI

[6] = Luminescence Cell-Based Dose Response HTS to Identify Activators of Luciferase Translation or Activity in H4 […] Cells. [Related pubchem assays: 1829 (Project Summary), 1814 (Primary HTS)]; format: functional
H4 = test: Luminescence Cell-Based Dose Response HTS to Identify Activators of 5'UTR Stem-Loop Driven Prion Protein mRNA Translation in H4 Neuroglioblastoma Cells. [Related pubchem assays: 1829 (Project Summary), 1814 (Primary HTS)]; format: functional; details: Homo sapiens

O=C(NC1CCCC1)C(c1ccc(F)cc1)N(Cc1ccc(F)cc1)C(=O)CCl (stereo unspecified)
EC50 (Protein RecA): 0.557 µM (active) | AC50 [1]: 4.67 µM (active)

CC(=O)C(C)Oc1ccc2c3c(c(=O)oc2c1)CCCC3 (stereo unspecified)
CC50 [2]: 31.8 µM (active)

O=C(Nc1ccc(S(=O)(=O)N2CCCCC2)cc1)C1CC(=O)N(c2ccc(Cl)cc2)C1 (stereo unspecified)
CC50 [2]: 19.9 µM (active)

COc1cccc(NC(=O)Nc2nnc(N3C(C)CCCC3C)s2)c1 (stereo unspecified)
CC50 [2]: > 50 µM (active)

CCOC(=O)C1CCN(C(=O)c2sc3nc(C)nc(N4CCC(C)CC4)c3c2C)CC1
AC50 [3]: 5.26 µM (active) | AC50 [4]: 9.01 µM (active)

O=C(Nc1ccc2ccccc2c1)c1ccc(NS(=O)(=O)c2ccc(Br)s2)cc1
EC50 (Streptococcus): 5.03 µM (active) | CC50 [2]: > 50 µM (active) | EC50 (Streptokinase A): > 150 µM (not active) | EC50 [5]: 2 µM (active)

COc1ccc(C2=NN(c3nc(C)cc(C)n3)C(=O)C2)cc1
EC50 (Protein RecA): 2.81 µM (active) | AC50 [1]: 4.53 µM (active)

N#Cc1c(Nc2ccccc2)sc(C(=O)c2ccc(F)cc2)c1N
AC50 (INS1): 20.9 µM (active)

Cc1c(NC(=O)/C(C#N)=C/c2ccc(-c3ccc(Cl)c(Cl)c3)o2)c(=O)n(-c2ccccc2)n1C
CC50 [2]: 13.3 µM (active) | IC50 (Protein skinhead-1): > 100 µM (inactive)

Cc1ccccc1C1CCCN(C(=O)c2cc(COc3c(F)cccc3F)on2)C1 (stereo unspecified)
CC50 [2]: 21.6 µM (active)

O=[N+]([O-])c1cccc(-c2c(-c3ccccc3)ncc3cc(F)ccc23)c1
IC50 (Protein skinhead-1): 88.7 µM (inactive)

Clc1ccccc1-c1ncc(-c2ccccc2)o1
IC50 (Protein skinhead-1): 37.3 µM (active)

C[C@@H]1CC=C[C@H]2[C@H]1C(=O)N(Cc1ccccc1)[C@H]2c1ccc(C(F)(F)F)cc1
EC50 (Protein RecA): 87 µM (active) | AC50 [1]: 22.3 µM (active)

COCCn1cnnc1SCC(=O)Nc1cccc(S(=O)(=O)N2CCCCC2)c1
IC50 (Protein skinhead-1): > 100 µM (inactive)

CC1(c2ccccc2)ON(c2ccccc2C(F)(F)F)C1=O (stereo unspecified)
CC50 [2]: 49.9 µM (active)

Cc1n[nH]c2c1C(CCc1ccccc1)C(C#N)=C(N)O2 (stereo unspecified)
EC50 (Protein RecA): 6.58 µM (active) | AC50 [1]: 24.9 µM (active)

N#Cc1cc2c(nc1SCC(=O)Nc1sc3c(c1C#N)CCC3)CCCC2
EC50 [6]: > 120 µM (not active) | EC50 (H4): 16 µM (active)

Cc1ccc2sc3ccc(NC(=O)c4ccccc4Cl)cc3c(=O)c2c1
CC50 [2]: 15.9 µM (active)

Cc1ccc(OCCn2cc(C#N)c3ccccc32)cc1
CC50 [2]: 28.8 µM (active)

Cc1ccccc1Oc1cc(NC(=O)CCCn2nc(C)c([N+](=O)[O-])c2C)cc([N+](=O)[O-])c1
AC50 (INS1): 6.96 µM (active)

COc1ccc2ccc3c(c2c1)N=C[C@]1(O3)N(C)c2ccccc2C1(C)C
EC50 (Protein RecA): 3.66 µM (active) | EC50 (Streptococcus): > 150 µM (not active) | EC50 (Streptokinase A): 3.17 µM (active) | EC50 [5]: 35.4 µM (active) | AC50 [1]: > 380 µM (inactive)

CC1CCc2c(sc3nc(CSc4nc[nH]n4)nc(O)c23)C1 (stereo unspecified)
CC50 [2]: 24.2 µM (active)

O=c1cc(C2CCNCC2)[nH][nH]1
EC50 (Protein RecA): 1.41 µM (active) | AC50 [1]: 3.73 µM (active)

COc1ccc(Br)cc1CN(C)CC(O)COc1ccc(Br)cc1 (stereo unspecified)
IC50 (Protein skinhead-1): > 100 µM (inactive)

O=C1/C(=C/c2cccs2)CCc2ccccc21
IC50 (Protein skinhead-1): 18.6 µM (active)

CCOc1ccc2cc(/C=C/C(=O)c3ccco3)c(Cl)nc2c1
CC50 [2]: 47.7 µM (active)

CCCCOc1ccc(C(=O)NC)cc1
IC50 (Protein skinhead-1): > 100 µM (inactive)

COc1ccc(-n2c(=O)c3ccccc3c3ccccc3c2=O)cc1
EC50 (Protein RecA): 23.3 µM (active) | AC50 [1]: 10.1 µM (active)

Cc1cccc(C(C)(C)C)c1OCCN1CCCC1
AC50 [3]: 34.2 µM (active) | AC50 [4]: 9.87 µM (active)

O=c1c2ccccc2oc2ccc(Oc3ccccc3)cc12
IC50 (Protein skinhead-1): 22.5 µM (active)

Cc1ccc(NC2=NC(=O)/C(=C\c3ccc(C)s3)S2)cc1
IC50 (Protein skinhead-1): > 100 µM (inactive)

COc1ccccc1N(Cc1ccccc1)S(=O)(=O)c1cccc(C(=O)Nc2ccccn2)c1
CC50 [2]: 11.6 µM (active)

Cc1c(C(C)(C)O)[nH]c2ccc(C(F)(F)F)cc12
CC50 [2]: 33.8 µM (active)

O=C(CCN1C(=O)/C(=C/c2cccs2)SC1=S)Nc1cccc(O)c1
EC50 (Protein RecA): 125 µM (active) | AC50 [1]: 1.64 µM (active)

N#CC1(Nc2ccc(-c3ccc(Cl)cc3)cc2)CCCC1
IC50 (Protein skinhead-1): 26.1 µM (active)

C=CCC1CCCCC1=C(C#N)c1ccccc1 (stereo unspecified)
IC50 (Protein skinhead-1): > 100 µM (inactive)

Cc1[nH]n(C)c(=O)c1C(=O)c1c(-c2ccccc2Cl)noc1C
EC50 (Protein RecA): 2.61 µM (active) | AC50 [1]: 6.51 µM (active)

COc1cccc(/C=N/NC(=O)c2cc(-c3ccccn3)nc3ccccc23)c1O
AC50 (INS1): 1.8 µM (active)

O=c1sc(/C=N/Nc2ccccc2)c(Cl)n1Cc1ccccc1
EC50 [6]: > 120 µM (not active) | EC50 (H4): 21.4 µM (active)

Cn1cc(/C=N\NC(=O)c2cccs2)c2ccccc21
EC50 [6]: 50.3 µM (active) | EC50 (H4): 37.7 µM (active)
